Literature values as cited in patent US20190167649A1, “TOPICAL RAPAMYCIN THERAPY” (THE BOARD OF REGENTS OF THE UNIVERSITY OF TEXAS SYSTEM, priority 2016, published 2019).

In the case of Rapamycin, the “solubility in organic solvents” value (benzyl alcohol, chloroform, acetone, and acetonitrile) is listed as “freely soluble” and the solubility in water (water) is listed as 2.6 µg/mL.
